Measurements: US20090298825A1, “Bicycloheteroaryl Compounds as P2x7 Modulators and Uses Thereof” (priority 2006, published 2009)

What was measured:
P2X7 receptor = target: T1, P2X7 receptor (Homo sapiens, UniProt Q99572); test: IL-1β release assay in differentiated THP-1 cells stimulated with BzATP (Example 9); format: cell-based; conditions: for inhibition at 0.3 µM: 0.3 μM concentration, read-out: IL-1β % Inhib. @ 0.3 or 0.1 μM; for IC50: four parameter logistic fit, read-out: IL-1β IC50
T1 construct: endogenous in cells; host or cells: THP-1 cells differentiated with LPS and IFN-γ
T1 sequence (Q99572 1-595): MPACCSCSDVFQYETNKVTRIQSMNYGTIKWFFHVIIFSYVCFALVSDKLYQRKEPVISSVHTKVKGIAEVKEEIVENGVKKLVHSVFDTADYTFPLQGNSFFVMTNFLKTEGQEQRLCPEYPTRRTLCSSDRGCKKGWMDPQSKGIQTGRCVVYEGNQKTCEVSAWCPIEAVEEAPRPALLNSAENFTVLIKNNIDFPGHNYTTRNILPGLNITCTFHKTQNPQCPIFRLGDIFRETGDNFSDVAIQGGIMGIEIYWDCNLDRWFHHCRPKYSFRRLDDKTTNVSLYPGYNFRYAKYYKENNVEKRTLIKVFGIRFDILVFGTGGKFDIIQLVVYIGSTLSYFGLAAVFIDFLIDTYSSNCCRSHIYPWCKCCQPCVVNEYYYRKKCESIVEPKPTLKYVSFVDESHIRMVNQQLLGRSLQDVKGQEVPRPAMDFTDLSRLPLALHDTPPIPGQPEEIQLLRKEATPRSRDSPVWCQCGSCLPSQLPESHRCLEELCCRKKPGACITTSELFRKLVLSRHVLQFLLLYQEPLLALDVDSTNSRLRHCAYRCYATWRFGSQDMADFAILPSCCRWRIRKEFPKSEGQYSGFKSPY
In short: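 Differentiated THP-1 cells pretreated 30 min with compound, then stimulated with BzATP. Released IL-1β in supernatant measured by ELISA; background-adjusted percent inhibition fitted to four-parameter logistic for IC50.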

[1] = Half-life in human liver microsomes (HLM); format: in vitro ADME; conditions: pH 7.4, 1 μM compound, 0.78 mg/mL HLM, NADPH, 37° C.
Method: Test compounds (1 μM) are incubated with 3.3 mM MgCl2 and 0.78 mg/mL HLM (HL101) in 100 mM potassium phosphate buffer (pH 7.4) at 37° C. on the 96-deep well plate. The reaction mixture is split into two groups, a non-P450 and a P450 group. NADPH is only added to the reaction mixture of the P450 group. An aliquot of samples of P450 group is collected at 0, 10, 30, and 60 min time point, where 0 min time point indicated the time when NADPH is added into the reaction mixture of P450 group. An aliquot of samples of non-P450 group is collected at −10 and 65 min time point. Collected aliquots are extracted with acetonitrile solution containing an internal standard. The precipitated protein is spun down in centrifuge (2000 rpm, 15 min). The compound concentration in supernatant is measured by LC/MS/MS system.
The half-life value is obtained by plotting the natural logarithm of the peak area ratio of compounds/internal standard versus time. The slope of the line of best fit through the points yields the rate of metabolism (k).

| Structure (SMILES) | inhibition at 0.3 µM (P2X7 receptor) | IC50 (P2X7 receptor) | half-life at 1 μM [1] |
| --- | --- | --- | --- |
| O=C(Cc1ccc(Cl)c(C(F)(F)F)c1)Nc1cccc2c(=O)n(C3CCNC3)ccc12 (stereo not drawn) [ID 814] | > 76% | 15.9 nM | 2.88 h |
| O=C(Cc1ccc(Cl)c(C(F)(F)F)c1)Nc1cccc2c(=O)n([C@H]3CCNC3)ccc12 [ID 825] | > 76% | 16.4 nM | 4.27 h |
| O=C(CC1CCCCCC1)Nc1cccc2c(=O)n(C3CNCC3O)ccc12 (stereo not drawn) [ID 828] | > 76% | 6.87 nM | 1.38 h |
| CC1(C)CC(CC(=O)Nc2cccc3c(=O)n([C@@H]4CCNC4)ccc23)CC(C)(C)C1 [ID 830] | > 76% |  | 5.59 h |
| C[C@@H](C(=O)Nc1cccc2c(=O)n([C@H]3CCNC3)ccc12)c1ccc(Cl)c(Cl)c1 [ID 833] | > 76% | 35 nM | 3.62 h |
| COc1ncccc1-n1ccc2c(NC(=O)Cc3ccc(Cl)c(C(F)(F)F)c3)cccc2c1=O [ID 847] | > 76% | 9.37 nM | 0.22 h |
| Cc1ncccc1-n1ccc2c(NC(=O)Cc3ccc(C(F)(F)F)c(F)c3)cccc2c1=O [ID 855] | > 76% | 11 nM | 0.73 h |
| Cc1ncccc1-n1ccc2c(NC(=O)Cc3ccc(Cl)c(C(F)(F)F)c3)cccc2c1=O [ID 861] | > 76% | 4 nM | 0.49 h |
| O=C(Cc1ccc(F)c(C(F)(F)F)c1)Nc1cccc2c(=O)n(C3CC3)ccc12 [ID 884] | > 76% | 5.37 nM | 0.77 h |
| C[C@H](C(=O)Nc1cccc2c(=O)n(C3CC3)ccc12)c1ccc(Cl)cc1 [ID 894] | > 76% | 31.9 nM |  |
| O=C(Cc1ccc(Cl)c(F)c1)Nc1cccc2c(=O)n(C3CCC3)ccc12 [ID 897] | > 76% | 24.5 nM |  |
| O=C(Cc1ccc(Cl)c(Cl)c1)Nc1cccc2c(=O)n(C3CCC3)ccc12 [ID 898] | > 76% | 23.6 nM |  |
| O=C(Cc1ccc(Cl)c(C(F)(F)F)c1)Nc1cccc2c(=O)n(C3CCC3)ccc12 [ID 899] | > 76% | 6.19 nM |  |

Continued by falling IC50 (P2X7 receptor), values first:

| inhibition at 0.3 µM (P2X7 receptor) | IC50 (P2X7 receptor) | half-life at 1 μM [1] | Structure (SMILES) |
| --- | --- | --- | --- |
| > 76% | 48.3 nM |  | O=C(Cc1ccc(F)c(Cl)c1)Nc1cccc2c(=O)n(C3CCC3)ccc12 [ID 893] |
| > 76% | 40.2 nM |  | Cc1ccc2c(=O)n([C@H]3CCNC3)ccc2c1NC(=O)Cc1ccc(C(F)(F)F)c(F)c1 [ID 900] |
| > 76% | 22.1 nM |  | O=C(Cc1ccc(C(F)(F)F)c(F)c1)Nc1cccc2c(=O)n(C3CCC3)ccc12 [ID 892] |
| > 76% | 19.9 nM | 1.54 h | C[C@H](C(=O)Nc1cccc2c(=O)n(C3CNCC3O)ccc12)c1ccc(Cl)cc1 (stereo partly drawn) [ID 829] |
| > 76% | 14.7 nM | 0.54 h | O=C(Cc1ccc(Cl)cc1F)Nc1cccc2c(=O)n(C3CC3)ccc12 [ID 883] |
| > 76% | 11 nM |  | Cc1ccc2c(=O)n([C@H]3CCNC3)ccc2c1NC(=O)Cc1ccc(F)c(C(F)(F)F)c1 [ID 901] |
| > 76% | 8.72 nM | 1.08 h | O=C(Cc1ccc(C(F)(F)F)c(F)c1)Nc1cccc2c(=O)n(-c3cccnc3F)ccc12 [ID 871] |
| > 76% | 4.02 nM | 0.42 h | Cc1ccc(-n2ccc3c(NC(=O)CC45CC6CC(CC(C6)C4)C5)cccc3c2=O)cn1 [ID 715] |
| > 76% | 2.44 nM | 1.85 h | O=C(Cc1ccc(Cl)c(C(F)(F)F)c1)Nc1cccc2c(=O)n(C3CNCC3O)ccc12 (stereo not drawn) [ID 826] |
